The source of these data is PMC6857051, “Proliferative regulation of alveolar epithelial type 2 progenitor cells by human Scnn1d gene” (Theranostics, 2019).

Like-named read-outs stand apart in the source and are kept apart here.

The target in this experiment is T1, human δ802βγ ENaC (Homo sapiens, UniProt P51168+P51170+P51172).
T1 construct: Bioelectric features of full-length human δ802 epithelial sodium channels (ENaC) in Xenopus oocytes; expressed in transfected cells; host or cells: Xenopus laevis oocytes injected with cRNA (pGEM HE vector)
T1 sequence (P51172 1-802): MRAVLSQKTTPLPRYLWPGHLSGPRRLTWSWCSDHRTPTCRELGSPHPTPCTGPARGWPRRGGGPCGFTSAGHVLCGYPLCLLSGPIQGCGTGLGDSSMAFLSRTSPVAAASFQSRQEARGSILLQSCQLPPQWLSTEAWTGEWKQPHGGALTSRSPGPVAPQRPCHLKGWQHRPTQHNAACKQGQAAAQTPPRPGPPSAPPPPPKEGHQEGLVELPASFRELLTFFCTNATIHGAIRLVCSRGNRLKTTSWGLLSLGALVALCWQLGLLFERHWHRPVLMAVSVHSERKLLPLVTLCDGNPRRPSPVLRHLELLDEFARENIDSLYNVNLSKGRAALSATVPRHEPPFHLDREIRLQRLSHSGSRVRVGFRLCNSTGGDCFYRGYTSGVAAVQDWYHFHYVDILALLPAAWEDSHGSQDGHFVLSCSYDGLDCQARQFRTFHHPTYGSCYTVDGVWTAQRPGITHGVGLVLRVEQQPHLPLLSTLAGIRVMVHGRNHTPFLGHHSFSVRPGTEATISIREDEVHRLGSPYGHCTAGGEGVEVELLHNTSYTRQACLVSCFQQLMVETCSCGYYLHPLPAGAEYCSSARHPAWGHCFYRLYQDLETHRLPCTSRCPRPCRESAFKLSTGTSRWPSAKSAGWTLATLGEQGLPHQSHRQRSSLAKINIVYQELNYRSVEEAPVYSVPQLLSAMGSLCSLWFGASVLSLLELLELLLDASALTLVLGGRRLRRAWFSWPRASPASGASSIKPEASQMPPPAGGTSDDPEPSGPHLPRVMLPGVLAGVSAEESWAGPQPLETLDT
T1 sequence (P51168 1-640): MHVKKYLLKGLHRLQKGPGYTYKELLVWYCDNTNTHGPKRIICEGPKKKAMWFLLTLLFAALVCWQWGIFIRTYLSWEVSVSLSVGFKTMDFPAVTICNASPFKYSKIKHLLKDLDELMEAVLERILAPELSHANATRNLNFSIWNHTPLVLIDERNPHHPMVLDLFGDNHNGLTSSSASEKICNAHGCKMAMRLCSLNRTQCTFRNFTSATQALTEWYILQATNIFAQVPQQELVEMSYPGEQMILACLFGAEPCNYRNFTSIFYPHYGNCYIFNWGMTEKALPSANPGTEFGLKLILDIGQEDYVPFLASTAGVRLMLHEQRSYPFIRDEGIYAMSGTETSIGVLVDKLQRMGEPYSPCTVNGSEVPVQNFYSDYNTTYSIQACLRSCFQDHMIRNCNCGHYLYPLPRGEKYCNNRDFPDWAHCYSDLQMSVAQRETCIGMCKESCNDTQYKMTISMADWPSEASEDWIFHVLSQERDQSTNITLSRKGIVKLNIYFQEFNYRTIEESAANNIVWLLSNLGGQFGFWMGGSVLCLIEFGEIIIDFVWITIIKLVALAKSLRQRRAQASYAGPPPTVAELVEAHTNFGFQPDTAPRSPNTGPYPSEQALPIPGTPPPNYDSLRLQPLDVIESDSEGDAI
T1 sequence (P51170 1-649): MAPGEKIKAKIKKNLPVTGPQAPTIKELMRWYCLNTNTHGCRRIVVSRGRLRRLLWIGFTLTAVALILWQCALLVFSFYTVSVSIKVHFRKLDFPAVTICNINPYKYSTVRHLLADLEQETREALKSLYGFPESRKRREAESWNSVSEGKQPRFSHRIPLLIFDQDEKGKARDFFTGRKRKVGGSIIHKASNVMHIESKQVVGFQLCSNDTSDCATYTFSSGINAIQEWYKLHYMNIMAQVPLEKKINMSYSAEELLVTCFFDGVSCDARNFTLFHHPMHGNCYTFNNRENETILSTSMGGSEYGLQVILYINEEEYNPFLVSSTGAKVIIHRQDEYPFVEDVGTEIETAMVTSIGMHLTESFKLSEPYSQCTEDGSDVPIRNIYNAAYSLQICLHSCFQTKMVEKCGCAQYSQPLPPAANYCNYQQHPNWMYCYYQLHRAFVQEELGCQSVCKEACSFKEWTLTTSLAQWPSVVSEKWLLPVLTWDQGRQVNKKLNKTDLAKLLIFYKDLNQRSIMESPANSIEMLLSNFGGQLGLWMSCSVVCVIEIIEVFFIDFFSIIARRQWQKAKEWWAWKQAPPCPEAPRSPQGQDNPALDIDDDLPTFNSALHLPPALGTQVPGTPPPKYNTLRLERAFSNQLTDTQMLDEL
Briefly: Two-electrode voltage clamp of δ802βγ-ENaC expressed in Xenopus oocytes. The class given is cell-based. On the procedure:
Cloning, in vitro transcription, and heterologous expression of δ802 ENaC and two-electrode voltage clamping assay. δ802 and other ENaC subunits were generated in human ENaC cDNAs cloned into a pGEM HE vector [4], [76]. cRNAs of human α, β, and γ ENaC were prepared as described previously. The stoichiometry of native ENaC complexes is unclear to date. Based on the studies in the last decade, several models have been proposed for αβγ ENaC channels: 1α1β1γ, 2α1β1γ, 3α3β3γ. Based on the EM structure of human αβγ ENaC [35], the currently acceptable model of human αβγ ENaC complexes is heterotrimeric (1α1β1γ). Thus we microinjected δ802:β:γ in a 1:1:1 subunit ratio. Oocytes were surgically removed from appropriately anesthetized adult female Xenopus laevis (Xenopus Express). Briefly, the ovarian tissue was removed from the frog under anesthesia by tricaine-S (Western Chemicals) through a small incision in the lower abdomen. Ovarian lobes were removed and digested in OR-2 calcium-free medium (in mM: 82.5 NaCl, 2.5 KCl, 1.0 MgCl2, 1.0 Na2HPO4, and 10.0 HEPES, pH 7.5) with the addition of 2 mg/ml collagenase (Roche, Indianapolis). Defolliculated oocytes were injected with ENaC cRNAs into the cytosol (25 ng per oocyte in 50 nl of RNase-free water) and incubated in regular OR-2 medium at 18°C. The two-electrode voltage-clamp technique was used to record whole-cell currents 48 h post injection. Oocytes were impaled with two electrodes filled with 3M KCl, having resistance of 0.5 - 2 MΩ. A TEV-200A voltage-clamp amplifier (Dagan) was used to clamp oocytes with concomitant recording of currents. Two reference electrodes were connected to the bath. The continuously perfused bathing solution was ND-96 medium (in mM: 96.0 NaCl, 1.0 MgCl2, 1.8 CaCl2, 2.5 KCl, and 5.0 HEPES, pH 7.5). Whole-cell currents were recorded as previously reported. Experiments were controlled by pCLAMP 10.7 software (Molecular Devices), and currents at -40 mV, -100 mV, and +80 mV were continuously monitored with data recorded at intervals of 10 sec. Data were sampled at the rate of 200 Hz and filtered at 50 Hz.

A word on the IC50: it is the concentration that inhibits the measured activity by half. Take `N=C(N)NC(=O)c1nc(Cl)c(N)nc1N` [amiloride]: where the note is “accumulating doses perfused to oocytes expressing δ802βγ-ENaC, n=17, mean ± s.e.m., SEM, read-out: IC50 value, dose-response curve fitted with the Hill equation”, the half-inhibitory concentration (IC50) worked out at 1690 ± 300 nM.

As to Ac-LRGTLPHPLQRLR-NH2 [α-13 peptide], the “effect on δ802βγ-ENaC activity” value (300 μM, -100 mV, n=5) was “slightly elevated”. The half-inhibitory concentration (IC50) (oocytes, current at -100 mV, n=3, Chi^2 = 0.77, R^2 = 0.86, legend prints δ802βγ, read-out: IC50, dotted line (for δ802βγ) (Hill equation)) was found to be 40 ± 70 nM.

B1: plasmin: serine protease of the plasmin(ogen) signal pathway for fibrinolysis (protein, UniProt P00747 20-580; P00747 581-810, looked up)
Plasmin heavy chain A: EPLDDYVNTQGASLFSVTKKQLGAGSIEECAAKCEEDEEFTCRAFQYHSKEQQCVIMAENRKSSIIIRMRDVVLFEKKVYLSECKTGNGKNYRGTMSKTKNGITCQKWSSTSPHRPRFSPATHPSEGLEENYCRNPDNDPQGPWCYTTDPEKRYDYCDILECEEECMHCSGENYDGKISKTMSGLECQAWDSQSPHAHGYIPSKFPNKNLKKNYCRNPDRELRPWCFTTDPNKRWELCDIPRCTTPPPSSGPTYQCLKGTGENYRGNVAVTVSGHTCQHWSAQTPHTHNRTPENFPCKNLDENYCRNPDGKRAPWCHTTNSQVRWEYCKIPSCDSSPVSTEQLAPTAPPELTPVVQDCYHGDGQSYRGTSSTTTTGKKCQSWSSMTPHRHQKTPENYPNAGLTMNYCRNPDADKGPWCFTTDPSVRWEYCNLKKCSGTEASVVAPPPVVLLPDVETPSEEDCMFGNGKGYRGKRATTVTGTPCQDWAAQEPHRHSIFTPETNPRAGLEKNYCRNPDGDVGGPWCYTTNPRKLYDYCDVPQCAAPSFDCGKPQVEPKKCPGR
Plasmin light chain B: VVGGCVAHPHSWPWQVSLRTRFGMHFCGGTLISPEWVLTAAHCLEKSPRPSSYKVILGAHQEVNLEPHVQEIEVSRLFLEPTRKDIALLKLSSPAVITDKVIPACLPSPNYVVADRTECFITGWGETQGTFGAGLLKEAQLPVIENKVCNRYEFLNGRVQSTELCAGHLAGGTDSCQGDSGGPLVCFEKDKYILQGVTSWGLGCARPNKPGVYVRVSRFVTWIEGVMRNN
modifications: Plasmin
notes: serine protease of the plasmin(ogen) signal pathway for fibrinolysis
B1: the “effect of serine protease incubation on δ802βγ activity” value (oocytes, -100 mV, tc-uPA 10 μg/ml, time course in minutes) is on record as “activated the δ802βγ activity in minutes”.
